Source: article PMC12172596, “Unveiling New Triazoloquinoxaline‐Based PROTACs Designed for the Selective Degradation of the ncBAF Chromatin Remodeling Subunit BRD9” (Chemistry (Weinheim an Der Bergstrasse, Germany), 2025)
Where two headings read alike, the source gives them in different places.

Columns and labels:
BRD9 (BD1) [1] = target: T1, BRD9 (BD1) (Homo sapiens, UniProt Q9H8M2); parameters: method as in PMID 34823196; settings: previously disclosed; read-out: IC50, affinity for BRD9; cited from earlier work
T1 construct: BSP‐32519
T1 sequence (Q9H8M2 136-240 limits assumed): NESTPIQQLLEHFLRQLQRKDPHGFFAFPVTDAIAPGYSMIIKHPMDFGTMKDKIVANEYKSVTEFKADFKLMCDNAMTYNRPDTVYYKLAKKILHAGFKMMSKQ

BRD9 = target: T2, BRD9 (Homo sapiens, UniProt Q9H8M2); assay: Western blotting of BRD9 protein levels in U937 cells; type: cell-based; settings: for BRD9 protein levels (degradation): different concentrations
T2 construct: WB analysis showing BRD9 protein levels following 48‐hours treatments with compounds 2−8; endogenous in cells; host or cells: U937 (ATCC)
T2 sequence (Q9H8M2 1-597): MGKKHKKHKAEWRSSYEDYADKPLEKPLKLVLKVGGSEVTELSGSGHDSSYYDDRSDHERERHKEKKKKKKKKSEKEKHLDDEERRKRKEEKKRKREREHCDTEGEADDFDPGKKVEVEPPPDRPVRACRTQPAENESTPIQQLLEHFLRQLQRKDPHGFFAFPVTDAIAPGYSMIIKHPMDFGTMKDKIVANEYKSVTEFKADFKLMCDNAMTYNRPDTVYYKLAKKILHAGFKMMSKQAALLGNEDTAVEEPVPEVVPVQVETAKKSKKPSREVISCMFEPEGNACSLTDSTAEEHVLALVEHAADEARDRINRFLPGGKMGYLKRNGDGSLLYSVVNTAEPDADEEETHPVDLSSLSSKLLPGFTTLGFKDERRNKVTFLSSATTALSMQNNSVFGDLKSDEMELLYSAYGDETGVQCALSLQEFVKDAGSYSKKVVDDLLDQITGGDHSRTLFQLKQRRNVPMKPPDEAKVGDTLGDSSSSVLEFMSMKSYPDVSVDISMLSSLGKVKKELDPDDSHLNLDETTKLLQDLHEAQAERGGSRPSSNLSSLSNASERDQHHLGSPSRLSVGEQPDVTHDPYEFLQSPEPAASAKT
Experimental: Cells have been authenticated by STR profiling.
Western blot was performed according to the previous protocol.^[ [71], [72] ^] U937 AML cells were pelleted and then lysed in RIPA buffer (1% Triton X‐100, 0.1% SDS, 150 mM NaCl, 1 mM EDTA pH 8, 10 mM Tris‐HCl pH 8) added with 1% protease inhibitor cocktail. The resulting lysate was subjected to centrifugation for 15 minutes at 4 °C. […] The protein signal was visualized by enhanced chemiluminescence method (ECL) through the Bio‐Rad Chemidoc machine. ImageJ software was used for densitometric analysis.

U937 cells [2] = assay: CCK8 viability assay in U937 cells; type: cell-based, human; settings: for U937 cell viability: CCK8, 48 hours treatment
Experimental: (§1) The AML U937 cell line (ATCC) was grown in Roswell Park Memorial Institute (RPMI) 1640 Medium with the addition of 10% fetal bovine serum (FBS), 1% L‐glutamine, and 1% antibiotics (100 U/mL penicillin, 100 µg/mL streptomycin, and 250 ng/mL amphotericin‐B). Cells have been authenticated by STR profiling.
CCK8 was purchased from Elabscience and used according to manufacturer instructions, briefly: 100 µL of cell suspension was added to each well using a 96‐well microplate. Cells were then incubated at 37 °C, in a 5% CO2 incubator for 24 hours. Compounds were added to the cells and incubated for an additional 48 hours at 37 °C. Next, 10 µL of CCK‐8 Buffer was added to each well, and cells were incubated again for 4 hours. Next, 450 nm absorbance was measured using a TECAN microplate reader.

[3] = Microsomal stability in human liver microsomes (HLMs); type: in vitro ADME; settings: LC-MS/MS analysis
Experimental: In our assay we followed the loss of the test compounds over time under CYP‐mediated metabolic pathways. The extent of hepatic metabolism allowed us the determination of different pharmacokinetic parameters such as in vitro t1/2, CLint, in vitro and CLint, in vivo. In vitro t1/2 and CLint, in vitro of test compounds after liver microsomes incubation were calculated according to “well‐stirred” model. In the “well‐stirred” model, the liver is represented by a single compartment, where the unbound concentration of a drug leaving the liver is in equilibrium with the intracellular unbound concentration in the hepatocytes.^[ [53] ^] Predicted CLint, invivo values were determined using human PBSF.^[ [54] ^]
The microsomal stability of compounds 2 and 9 was assessed according to the previously described protocol.^[ [73] ^] […] The supernatants were collected and analyzed by LC‐MS/MS. The extent of metabolism is quantified as a percentage of the parent compound turnover. […] In vitro half‐lives (t1/2) were calculated using the expression t1/2 = 0.693/b, where b is the slope found in the linear fit of the natural logarithm of the fraction remaining of the parent compound versus incubation time. Microsomal intrinsic clearance was calculated as CLint , in vitro = (1000) × (0.693/t1/2)/0.5. […]

Human plasma stability = type: in vitro ADME; settings: incubation up to 120 minutes, 37 °C, read-out: compound recovery after incubation with human plasma
Experimental: The plasma stability of compounds 2 and 9 was evaluated. Briefly, the plasma was equilibrated at 37 °C, and biotransformation was initiated by adding the compound solution and mixing. At each specified time point (0, 60, and 120 minutes), test compounds were extracted into 200 µL ice‐cold methanol to stop degradation. Tolbutamide was added during the quenching phase. Finally, the concentration of the test compound was monitored by LC‐MS. The percentage of the test compound remaining at each individual time point was reported. The results are reported as mean ± SD from three independent experiments. Procaine and procainamide were used as controls.

BRD9 (BD1) [4] = target: T1, BRD9 (BD1); assay: AlphaScreen assay, BRD9 (BD1) Inhibitor Screening Assay Kit; type: binding; settings: for IC50: AlphaScreen, read-out: IC50, BRD9 binding
Experimental: The evaluation of the interaction between synthesized compounds and BRD9 was conducted using AlphaScreen Technology using an Enspire microplate analyzer (Perkin Elmer)^[ [70] ^] and the BRD9 (BD1) Inhibitor Screening Assay Kit (BSP‐32519) as reported by Colarusso et al.^[ [38], [39] ^] IC50 values were calculated by GraphPad Prism10 software.

BRD7 = target: T3, BRD7 (Homo sapiens, UniProt Q9NPI1); assay: Western blotting of BRD7 protein levels in U937 cells; type: cell-based; settings: 48 hours treatment, western blot
T3 construct: WB analysis showing BRD9 and BRD7 protein levels following 48‐hours treatment with compound 9; endogenous in cells; host or cells: U937 (ATCC)
T3 sequence (Q9NPI1 1-651): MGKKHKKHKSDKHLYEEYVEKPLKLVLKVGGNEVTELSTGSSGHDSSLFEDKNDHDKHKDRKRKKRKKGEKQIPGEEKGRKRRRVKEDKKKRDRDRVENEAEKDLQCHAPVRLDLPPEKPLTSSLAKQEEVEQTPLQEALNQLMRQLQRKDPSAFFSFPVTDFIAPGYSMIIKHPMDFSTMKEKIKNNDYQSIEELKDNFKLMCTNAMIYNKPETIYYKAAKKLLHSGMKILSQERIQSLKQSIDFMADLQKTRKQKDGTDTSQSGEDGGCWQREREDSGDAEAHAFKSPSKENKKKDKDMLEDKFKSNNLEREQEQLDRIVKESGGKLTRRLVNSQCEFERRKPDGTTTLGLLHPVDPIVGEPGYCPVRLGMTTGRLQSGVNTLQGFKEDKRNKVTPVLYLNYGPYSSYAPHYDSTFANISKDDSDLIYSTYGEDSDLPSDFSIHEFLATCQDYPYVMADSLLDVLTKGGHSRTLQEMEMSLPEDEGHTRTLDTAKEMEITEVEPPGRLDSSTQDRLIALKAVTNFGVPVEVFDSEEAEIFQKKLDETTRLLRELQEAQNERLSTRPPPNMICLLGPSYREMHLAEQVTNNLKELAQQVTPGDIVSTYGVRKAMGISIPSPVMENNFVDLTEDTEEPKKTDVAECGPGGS
Experimental: as §1
Western blot was performed according to the previous protocol.^[ [71], [72] ^] U937 AML cells were pelleted and then lysed in RIPA buffer (1% Triton X‐100, 0.1% SDS, 150 mM NaCl, 1 mM EDTA pH 8, 10 mM Tris‐HCl pH 8) added with 1% protease inhibitor cocktail. The resulting lysate was subjected to centrifugation for 15 minutes at 4 °C. After that, the supernatant was collected and supplemented with 6X Laemmli buffer (0.217 M Tris‐HCl pH 8.0, 52.17% SDS, 17.4% glycerol, 0.026% bromophenol blue, 8.7% beta‐mercapto‐ethanol) and boiled for 3 minutes at 99 °C,25 µg of protein extract were resolved by SDS‐polyacrylamide gel electrophoresis and then transferred on nitrocellulose membrane (Bio‐Rad). The membrane was probed with anti‐BRD9 (Bethyl Laboratories #A303‐781A), anti‐BRD7 (Invitrogen #PA5‐40379), anti‐GADPH (Elabscience # E‐AB‐40337), and anti‐α‐tubulin (Elabscience # E‐AB‐20036). The protein signal was visualized by enhanced chemiluminescence method (ECL) through the Bio‐Rad Chemidoc machine. ImageJ software was used for densitometric analysis. […]

U937 cells [5] = assay: Proliferation assay (trypan blue exclusion cell counting) in U937 cells; type: cell-based, human; settings: time-point treatment
Experimental: as §1
Trypan blue exclusion cell counting has been used to trace the number of cells over the different times of analysis.

[6] = 48 hours treatment, western blot

For `CCc1nnc2c(Nc3cccc(NC(C)=O)c3)nc3ccccc3n12` [compound 1], the IC50 (BRD9 (BD1) [1]) is given as 4200 ± 1920 nM, the “BRD9 protein levels (degradation)” value (BRD9; [6]) is given as “only a slight reduction in BRD9 protein levels” and the U937 cell viability (U937 cells [2]) is given as “minimally affected”.

In the case of `CCc1nnc2c(Nc3cccc(NC(=O)CCCCCCOCCOCC(=O)N[C@H](C(=O)N4C[C@H](O)C[C@H]4C(=O)NCc4ccc(-c5scnc5C)cc4)C(C)(C)C)c3)nc3ccccc3n12` [compound 2], the U937 cell viability (U937 cells [2]) is reported as “strong reduction of cell viability”, the “primary metabolites after incubation with HLMs” value [3] is reported as “dealkylation reactions” and the recovery at 120 min (Human plasma stability) is reported as no less than 90%. For the same compound, the “residual binding of histone H4” value (BRD9 (BD1) [4]; 10 µM ligand concentration) was 21.6 ± 0.3% and the IC50 (BRD9 (BD1) [4]) was 2970 ± 250 nM.

In the case of `CCc1nnc2c(Nc3cccc(NC(=O)CCCCCCNc4cccc5c4C(=O)N(C4CCC(=O)NC4=O)C5=O)c3)nc3ccccc3n12` (stereo not drawn) [compound 4], the “BRD9 protein levels (degradation)” value (BRD9; [6]) is reported as “no effect was observed” and the U937 cell viability (U937 cells [2]) is reported as “did not observe variation in cell viability”.

With `CCc1nnc2c(Nc3cccc(NC(=O)CCOCCNc4cccc5c4C(=O)N(C4CCC(=O)NC4=O)C5=O)c3)nc3ccccc3n12` (stereo not drawn) [compound 5] the U937 cell viability (U937 cells [2]) was “strong reduction of cell viability”.

For `CCc1nnc2c(Nc3cccc(NC(=O)CCOCCOCCNc4cccc5c4C(=O)N(C4CCC(=O)NC4=O)C5=O)c3)nc3ccccc3n12` (stereo not drawn) [compound 6], the “BRD9 protein levels (degradation)” value (BRD9; [6]) was “no effect was observed” and the U937 cell viability (U937 cells [2]) was “did not observe variation in cell viability”.

With `CCc1nnc2c(Nc3cccc(NC(=O)CCOCCOCCOCCNc4cccc5c4C(=O)N(C4CCC(=O)NC4=O)C5=O)c3)nc3ccccc3n12` (stereo not drawn) [compound 7] the “BRD9 protein levels (degradation)” value (BRD9; [6]) was “no effect was observed” and the U937 cell viability (U937 cells [2]) was “did not observe variation in cell viability”.

In the case of `CCc1nnc2c(Nc3cccc(NC(=O)CCCCCCOCCOCC(=O)Nc4cccc5c4C(=O)N(C4CCC(=O)NC4=O)C5=O)c3)nc3ccccc3n12` (stereo not drawn) [compound 8], the “BRD9 protein levels (degradation)” value (BRD9; [6]) is reported as “no effect was observed” and the U937 cell viability (U937 cells [2]) is reported as “did not observe variation in cell viability”.

With `CCCCc1nnc2c(Nc3cccc(NC(=O)CCCCCCOCCOCC(=O)N[C@H](C(=O)N4C[C@H](O)C[C@H]4C(=O)NCc4ccc(-c5scnc5C)cc4)C(C)(C)C)c3)nc3ccccc3n12` [compound 9] the BRD7 protein levels (BRD7) was “not interfering with BRD7 protein levels”, the AML cell proliferation (U937 cells [5]) was “negatively affected AML cell proliferation” and the “BRD9 protein levels with proteasome inhibitor MG132” value (BRD9; 48 hours treatment with or without MG132 (25 µM for 6 hours)) was “MG132 treatment rescued BRD9 depletion”. For the same compound, the “concentration at which BRD9 degradation is effectively induced” value (BRD9; [6]) was 1 µM, the U937 cell viability (U937 cells [2]) was “significantly impaired leukemic cell viability” and the “ability to reduce leukemic cell viability and AML cell proliferation compared with dBRD9” value (U937 cells [2]; U937 cells, versus reference dBRD9) was “superior ability to reduce leukemic cell viability and AML cell proliferation”. For the same compound, the “primary metabolites after incubation with HLMs” value [3] was “dealkylation reactions”, the recovery at 120 min (Human plasma stability) was no less than 90% and the IC50 (BRD9 (BD1) [4]) was 660 ± 40 nM. The “fold higher binding affinity to BRD9 compared to degrader 2” value (BRD9 (BD1) [4]; compared to compound 2) was 4.5 fold.
